Laboratory results reported in patent US12077531B2, “Imidazopyridinone compound” (KISSEI PHARMACEUTICAL CO., LTD., priority 2018, dated 2024).
Where two headings read alike, the source gives them in different places.

Columns and labels:
[1] = Rat PK study: concentration of compounds in large intestine tissue and plasma; type: in vivo; settings: male, SD, 3 mg/kg oral; for Kp at 8 h: large intestine tissue / plasma, read-out: C/P: ratio of the above Colon and Plasma; for AUC / Cmax: non-fasted; for AUC: read-out: AUC: area under the plasma test compound concentration-time curve (converted); for Cmax: read-out: Cmax: maximum plasma concentration of test compounds in the case of oral administration
Protocol: Test Example 3 Concentration of Compounds in Large Intestine Tissue
Test compounds (3 mg/kg/5 mL) prepared by 0.05% methylcellulose were orally administered to non-fasted rats (SD, 8-weeks-old, male, Japan SLC). Blood samples were collected from jugular vein at 0.25, 0.5, 1, 2, 4, 6 and 8 hours after the administration. Laparotomy was performed under isoflurane anesthesia and large intestine was isolated. Collected distal large intestine (about 5 cm) was cut open, and then the large intestine was washed with saline on a dish. After washing, the large intestine was minced by a small scissors. About 150 mg thereof was moved to tube. To the tube was added 100 μL of saline, the mixture was homogenized using shake master (1000 rpm×30 minutes). Samples were prepared by the addition with quadruple volume of saline as final volume. The concentrations of the test compound in large intestine tissue and plasma were measured through a quantitative analysis using liquid chromatography-mass spectrometry (LC/MS).

[2] = tested on: TNBS induced colitis model rat; test: Therapeutic effect in TNBS induced colitis model rat (intestinal permeability of FITC); type: in vivo; settings: po, 72 h, 3 mg/kg orally once a day for 3 days, SD rats, mean, test compounds-free group 0, TNBS-untreated group 100, read-out: Inhibition (%): suppressive rate on the intestinal permeability
Protocol: Test Example 2 Therapeutic Effect in Colitis Model
(1) TNBS Induced Colitis Model Rat
SD rats: 8-weeks-old male SLC (Japan SLC) were used. Under pentobarbital anesthesia, 300 μL of TNBS (28 mg/mL) prepared by 50% ethanol was administered at a point 8 cm from anus in large intestine to cause inflammation. To the solvent-treated group was administrated 300 μL of 50% ethanol. Animals were fasted for 48 hours prior to administration of TNBS. Test compounds (3 mg/kg) prepared by 0.05% methylcellulose solution were orally administered once a day from next day, and it was administered for a total of 3 days. After administering for 3 days, 50 mg/kg FITC was orally administered at 4 hours after administration. Blood samples were collected from jugular vein under isoflurane anesthesia after 4 hours. The serum was centrifuged and fluorescence intensity was detected by PHERAstar FSX (BMG Labtech) to measure the concentration of FITC permeating into circulating blood through the mesentery. The suppressive rate on the intestinal permeability of test compounds was calculated based on the value of test compounds-free group as 0 and the value of TNBS-untreated group as 100.

human PHD2184-418 = human PHD2184-418 (Homo sapiens (Human), UniProt Q9GZT9); test: PHD2 inhibitory test (fluorescence polarization, binding between PHD2 and HIF-1α); settings: human PHD2184-418, FITC-labeled HIF-1α556-574, 2 μM 2-oxoglutarate, 37° C. 60 minutes
Outline: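 N-His-tagged human PHD2 (residues 184–418, E. coli-expressed) was preincubated with compound, then FITC-Ahx-HIF-1α556-574 peptide was added in pH 7.4 HEPES buffer with 10 μM MnCl2 and 2 μM 2-oxoglutarate. After 60 min at 37 °C, fluorescence polarization (ex 470/em 530 nm) was read. Inhibition was calculated against compound-free wells.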

[3] = large intestine tissue (distal large intestine), read-out: Colon: concentrations of the test compound in large intestine tissue after 8 hours
[4] = plasma, read-out: Plasma: plasma test compound concentration after 8 hours

Chain of human PHD2184-418 (Q9GZT9 184-418): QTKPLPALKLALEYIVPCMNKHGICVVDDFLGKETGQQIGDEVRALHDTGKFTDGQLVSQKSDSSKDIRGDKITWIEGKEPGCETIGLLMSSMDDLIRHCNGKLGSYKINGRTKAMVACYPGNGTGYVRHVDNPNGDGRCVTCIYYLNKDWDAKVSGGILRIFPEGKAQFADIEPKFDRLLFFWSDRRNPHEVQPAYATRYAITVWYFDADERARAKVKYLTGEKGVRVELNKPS

| SMILES | concentration at 8 h [1, 3] [ng/g] | Kp at 8 h [1] | concentration at 8 h [1, 4] [ng/mL] | AUC ([1]; plasma) [ng·h/mL] | Cmax ([1]; plasma) [ng/mL] | IC50 (human PHD2184-418) [nM] | inhibition in vivo at 3 mg/kg [2] [%] |
| --- | --- | --- | --- | --- | --- | --- | --- |
| Cn1ccnc1CN1CC[C@H](n2c(=O)n(-c3ccc(-c4ccc(C(=O)O)cc4)cc3O)c3cccnc32)C1 [Example 39, (S)-3′-Hydroxy-4′-(3-(1-((1-methyl-1H-imidazol-2-yl)methyl)pyrrolidin-3-yl)-2-oxo-2,3-dihydro-1H-imidazo[4,5-b]pyridin-1-yl)-[1,1′-biphenyl]-4-carboxylic acid] | 214 | 71 | 3 | 34.8 | 7 | 340 | 95 |
| Cn1ccnc1CN1CC[C@H](n2c(=O)n(-c3ccc(-c4ccc(C(=O)O)cc4)c(O)c3)c3cccnc32)C1 [Example 40, (S)-2′-Hydroxy-4′-(3-(1-((1-methyl-1H-imidazol-2-yl)methyl)pyrrolidin-3-yl)-2-oxo-2,3-dihydro-1H-imidazo[4,5-b]pyridin-1-yl)-[1,1′-biphenyl]-4-carboxylic acid] | 209 | > 209 | < 1 |  | < 1 | 760 | 84 |
| Cn1ccnc1CN1CC[C@H](n2c(=O)n(-c3ccc(-c4ccc(C(=O)O)cc4)nc3)c3cccnc32)C1 [Example 41, (S)-4-(5-(3-(1-((1-Methyl-1H-imidazol-2-yl)methyl)pyrrolidin-3-yl)-2-oxo-2,3-dihydro-1H-imidazo[4,5-b]pyridin-1-yl)pyridin-2-yl)benzoic acid] |  |  |  |  |  | 1460 | 74 |
| Cn1ccnc1CN1CC[C@H](n2c(=O)n(-c3ccc(-c4ccc(C(=O)O)cc4)cc3)c3cccnc32)C1 [Example 47, (S)-4′-(3-(1-((1-Methyl-1H-imidazol-2-yl)methyl)pyrrolidin-3-yl)-2-oxo-2,3-dihydro-1H-imidazo[4,5-b]pyridin-1-yl)-[1,1′-biphenyl]-4-carboxylic acid] | 317 | 18 | 18 | 334 | 60 | 410 | 85 |
| Cn1c(C(=O)O)cnc1CN1CC[C@H](n2c(=O)n(-c3ccc(-c4ccc(C(=O)O)cc4)nc3)c3cccnc32)C1 [Example 85, (S)-2-((3-(1-(6-(4-Carboxyphenyl)pyridin-3-yl)-2-oxo-1,2-dihydro-3H-imidazo[4,5-b]pyridin-3-yl)pyrrolidin-1-yl)methyl)-1-methyl-1H-imidazole-5-carboxylic acid] | 164 | > 164 | < 1 |  |  |  | 101 |
| Cn1c(C(=O)O)cnc1CN1CC[C@H](n2c(=O)n(-c3ccccc3)c3cccnc32)C1 [Example 87, (S)-1-Methyl-2-((3-(2-oxo-1-phenyl-1,2-dihydro-3H-imidazo[4,5-b]pyridin-3-yl)pyrrolidin-1-yl)methyl)-1H-imidazole-5-carboxylic acid] |  |  |  |  |  | 3990 |  |
| Cc1cccnc1CN1CC[C@H](n2c(=O)n(-c3ccc(-c4ccc(O)cc4)cc3)c3cccnc32)C1 [Example 89, (S)-1-(4′-Hydroxy-[1,1′-biphenyl]-4-yl)-3-(1-((3-methylpyridin-2-yl)methyl)pyrrolidin-3-yl)-1,3-dihydro-2H-imidazo[4,5-b]pyridin-2-one] |  |  |  |  |  | 3170 |  |
| Cc1cccnc1CN1CC[C@H](n2c(=O)n(-c3ccc(-c4ccncc4)cc3)c3cccnc32)C1 [Example 90, (S)-3-(1-((3-Methylpyridin-2-yl)methyl)pyrrolidin-3-yl)-1-(4-(pyridin-4-yl)phenyl)-1,3-dihydro-2H-imidazo[4,5-b]pyridin-2-one] |  |  |  |  |  | 7460 |  |

Continued by falling IC50 (human PHD2184-418), values first:

| concentration at 8 h [1, 3] [ng/g] | Kp at 8 h [1] | concentration at 8 h [1, 4] [ng/mL] | AUC ([1]; plasma) [ng·h/mL] | Cmax ([1]; plasma) [ng/mL] | IC50 (human PHD2184-418) [nM] | SMILES | inhibition in vivo at 3 mg/kg [2] [%] |
| --- | --- | --- | --- | --- | --- | --- | --- |
| 87 | > 87 | < 1 | 6.68 | 2 | 270 | O=C(O)c1ccc(-c2ccc(-n3c(=O)n([C@H]4CCN(Cc5cc(C(=O)O)ccn5)C4)c4ncccc43)cc2O)cc1 [Example 45, (S)-2-((3-(1-(4′-Carboxy-2-hydroxy-[1,1′-biphenyl]-4-yl)-2-oxo-1,2-dihydro-3H-imidazo[4,5-b]pyridin-3-yl)pyrrolidin-1-yl)methyl)isonicotinic acid] | 51 |
|  |  |  |  |  | 270 | Cn1c(C(=O)O)cnc1CN1CC[C@H](n2c(=O)n(-c3ccc(-c4ccccc4)cc3)c3cccnc32)C1 [Example 86, (S)-2-((3-(1-([1,1′-Biphenyl]-4-yl)-2-oxo-1,2-dihydro-3H-imidazo[4,5-b]pyridin-3-yl)pyrrolidin-1-yl)methyl)-1-methyl-1H-imidazole-5-carboxylic acid] |  |
|  |  |  |  |  | 270 | Cn1c(C(=O)O)cnc1CN1CC[C@@H](n2c(=O)n(-c3ccc(-c4ccc(C(=O)O)cc4)nc3)c3cccnc32)C1 [Example 88, (R)-2-((3-(1-(6-(4-Carboxyphenyl)pyridin-3-yl)-2-oxo-1,2-dihydro-3H-imidazo[4,5-b]pyridin-3-yl)pyrrolidin-1-yl)methyl)-1-methyl-1H-imidazole-5-carboxylic acid] |  |
| 84 | 42 | 2 | 35.2 | 8 | 200 | O=C(O)c1ccc(-c2ccc(-n3c(=O)n([C@H]4CCN(Cc5cc(C(=O)O)ccn5)C4)c4ncccc43)cc2)cc1 [Example 43, (S)-2-((3-(1-(4′-Carboxy-[1,1′-biphenyl]-4-yl)-2-oxo-1,2-dihydro-3H-imidazo[4,5-b]pyridin-3-yl)pyrrolidin-1-yl)methyl)isonicotinic acid] | 59 |
| 174 | > 174 | < 1 | 5.23 | 3 | 150 | O=C(O)c1ccc(-c2ccc(-n3c(=O)n([C@H]4CCN(Cc5cc(C(=O)O)ccn5)C4)c4ncccc43)cn2)cc1 [Example 46, (S)-2-((3-(1-(6-(4-Carboxyphenyl)pyridin-3-yl)-2-oxo-1,2-dihydro-3H-imidazo[4,5-b]pyridin-3-yl)pyrrolidin-1-yl)methyl)isonicotinic acid] | 63 |
| 54 | > 54 | < 1 | 21.5 | 5 | 140 | Cn1c(C(=O)O)cnc1CN1CC[C@H](n2c(=O)n(-c3ccc(-c4ccc(C(=O)O)cc4)cc3)c3cccnc32)C1 [Example 83, (S)-2-((3-(1-(4′-Carboxy-[1,1′-biphenyl]-4-yl)-2-oxo-1,2-dihydro-3H-imidazo[4,5-b]pyridin-3-yl)pyrrolidin-1-yl)methyl)-1-methyl-1H-imidazole-5-carboxylic acid] | 85 |
|  |  |  |  |  | 130 | Cn1c(C(=O)O)cnc1CN1CC[C@H](n2c(=O)n(-c3ccc(-c4ccc(O)cc4)cc3)c3cccnc32)C1 [Example 82, (S)-2-((3-(1-(4′-Hydroxy-[1,1′-biphenyl]-4-yl)-2-oxo-1,2-dihydro-3H-imidazo[4,5-b]pyridin-3-yl)pyrrolidin-1-yl)methyl)-1-methyl-1H-imidazole-5-carboxylic acid] | 96 |
| 201 | > 201 | < 1 | 15 | 4 | 120 | Cn1c(C(=O)O)cnc1CN1CC[C@H](n2c(=O)n(-c3ccc(-c4ccc(C(=O)O)cc4)cc3O)c3cccnc32)C1 [Example 49, (S)-2-((3-(1-(4′-Carboxy-3-hydroxy-[1,1′-biphenyl]-4-yl)-2-oxo-1,2-dihydro-3H-imidazo[4,5-b]pyridin-3-yl)pyrrolidin-1-yl)methyl)-1-methyl-1H-imidazole-5-carboxylic acid] | 82 |
